Entries after “also recorded” stand apart in the source; their conditions may differ.
Legend:
MDA-MB-231 cells = experiment: 3D culture / co-culture invasion model on reconstituted basement membrane; type: cell-based, human; conditions: for invasive protrusions / invasive outgrowths of co-cultures: MDA-MB-231 co-cultured 1:1 with N1ME stefin A low myoepithelial cells, 50 μM inhibitor in media, refreshed every 48 hours, vs DMSO control, n=3
Procedure: All 3D cultures were performed using CULTREX® (Trevigen, Gaithersburg, MD, 3433-005-01) similar to previously described (Mullins et al.). Briefly, 8 well chambers (THERMOFISHER, NUN155409) were coated with 100% CULTREX and allowed to solidify at 37° C. Cells (pre-mixed at 1:1 ratio) were seeded on top of the solidified CULTREX and allowed to adhere for 60-90 minutes before 2% CULTREX in MEGM media (LONZA) was overlaid. Media was changed every 4 days unless otherwise stated. On day 7, Z-stacks were captured on a ZEISS LSM 780 inverted confocal microscope, and 3D-reconstructions were created using IMARIS.
Bright-field images at 40× magnification were taken on the Olympus BX41 using a DP25 camera and DP2-BSW software (Olympus, TYO, Japan) to observe overall multicellular morphology. Nuclei were labelled with cell permeable Hoechst (Thermo Scientific, MA, USA, 33342) and rinsed with PBS. Confocal microscopy was performed on a Zeiss LSM 780 inverted confocal microscope (Zeiss, Thornwood, NY, USA) with a 10×/0.45 air-objective, with 37° C., 5% CO2 incubation. Z-stacks were captured using ZEN software (Zeiss) and 3D-reconstructions were created using IMARIS (Bitplane, Switzerland) including volume rendering.
Images of 3D cultures were processed and analyzed using the Fiji distribution of IMAGEJ (Schindelin et al. 2012) as follows. Extraction and mask generation of the individual cultures was carried out by applying an edge filter followed by an unsharp mask (radius=6, mask=0.8). The resulting image was blurred using a Gaussian filter (sigma=4) to make subsequent thresholding more accurate. A threshold was applied, manually adjusted if required and used to create a binary mask. The resulting mask was filtered by size to remove small, erroneous, debris. Each individual 3D cultures mask was then measured for its perimeter and convex hull lengths. […]
All statistics were calculated and graphed using PRISM version 7. […] Variation in mean convex hull to perimeter ratio was determined using one-way ANOVA followed by Tukey's post hoc analysis.

[1] = system: MMTV-PyMT mice (spontaneous mammary gland tumors); experiment: MMTV-PyMT mouse model of DCIS-to-invasive transition; type: in vivo; conditions: 50 mg/kg intraperitoneal daily, day 30-49
Procedure: Mouse investigations were performed after approval by the La Trobe University Animal Ethics Committee. Bl/6 MMTV-PyMT positive female mice were injected (intraperitoneal, 200 μl/20 g mouse) daily with 50 mg/kg CA-074 or vehicle (5% DMSO/saline) from day 30-49. On day 50, mice were culled and second, third and fourth mammary glands were resected and sent for histology. Mouse tissues were fixed in 10% buffered formalin for 6 hours and paraffin-embedded. Sections at three different depths throughout the mammary gland were taken and were stained with hematoxylin and eosin according to standard protocols. Alternatively, sections were stained with 1 μg/ml anti-α-smooth muscle actin (ABCAM, ab66133) or with isotype control antibodies, as above. Sections were scored by a pathologist blinded to treatment groups (Sandra O'Toole) for the presence of invasive regions of cancer growth within the mammary gland. Experiment included 8 mice per group.

DSG3 = experiment: Western blot of DSG3 in N1ME cells and conditioned media after CA-074 treatment; type: cell-based, human; conditions: CA-074 for 72 hours vs DMSO
Procedure: (§1) Cells were lysed by freezing in citrate buffer (50 mM citrate, pH 5.5, 0.5% CHAPS, 0.1% TRITON™ X-100, 4 mM DTT). For cathepsin B activity gels, activity-based probes [GB123 (1 μM) (29) or BMV109 (0.1 μM) (Verdoes et al. 2013)] were added to lysates from a 100×stock, and proteins were incubated for 30 minutes at 37° C. The addition of 4×sample buffer (40% glycerol, 200 mM Tris-HCl pH 6.8, 0.04% bromophenol blue, 5% beta-mercaptoethanol) stopped the reaction with boiling for 10 minutes. Proteins (30-50 μg) were separated by SDS-PAGE (on either 15% acrylamide or gradient 4-20% gels, precast from BIO-RAD, CA, USA) and visualized using a TYPHOON flatbed laser scanner (GE Healthcare, UK) for Cy5 fluorescence. For immunoblotting, proteins were transferred to nitrocellulose membranes and subjected to standard Western blotting protocols. Membranes were incubated with 1 μg/ml primary antibodies against stefin A, cathepsin B (R&D Systems, Minneapolis, USA, AF965), DSG3 (Life Technologies, 326300), E-cadherin (Novus, NB-110-56937), or 1:10,000 dilutions of β-actin (Sigma-Aldrich, MO, USA, A22280) or GAPDH (Cell Signaling Technology, MA, USA, 8884). Signal was detected using ECL (GE Healthcare), G:Box GelDoc (Syngene, CBG, UK) and GeneSys (Syngene) software with automatic exposure.
(§2) To collect secreted proteins, cells were incubated in serum free media for 24 hours. […]

E-cadherin = experiment: Western blot of E-cadherin in N1ME cells and supernatant after CA-074 treatment; type: cell-based, human; conditions: N1ME stefin A wild type or stefin A low cells; CA-074 for 72 hours
Procedure: as §1, §2

cathepsin B = target: T1, cathepsin B (Homo sapiens, UniProt P07858); experiment: Stefin A in vitro inhibition of cathepsin B in N1ME cell lysate (BMV109 activity based probe); type: biochemical; conditions: increasing concentrations of recombinant stefin A, 15 min at 37 C
T1 construct: SDS-PAGE gel electrophoresis of N1ME cell lysate incubated with increasing concentrations of recombinant stefin A; endogenous in cells; host or cells: N1ME (hTERT-immortalized human myoepithelial cells), lysed in citrate buffer pH 5.5
Procedure: as §1, with “exposure. […]” for “exposure.”

cathepsin L = target: T2, cathepsin L (Homo sapiens, UniProt P07711); experiment: Stefin A in vitro inhibition of cathepsin L in N1ME cell lysate (BMV109 activity based probe); type: biochemical; conditions: increasing concentrations of recombinant stefin A, 15 min at 37 C
T2 construct: SDS-PAGE gel electrophoresis of N1ME cell lysate incubated with increasing concentrations of recombinant stefin A; endogenous in cells; host or cells: N1ME (hTERT-immortalized human myoepithelial cells), lysed in citrate buffer pH 5.5
T2 sequence (P07711 114-333): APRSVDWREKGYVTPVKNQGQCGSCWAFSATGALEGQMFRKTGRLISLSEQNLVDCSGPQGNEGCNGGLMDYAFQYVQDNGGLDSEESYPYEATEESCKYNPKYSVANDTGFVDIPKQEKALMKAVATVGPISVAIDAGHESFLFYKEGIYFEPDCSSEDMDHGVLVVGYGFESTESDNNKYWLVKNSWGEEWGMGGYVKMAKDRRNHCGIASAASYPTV

| cathepsin B activity (cathepsin B) | cathepsin L activity (cathepsin L) | Molecule | invasive protrusions / invasive outgrowths of co-cultures (MDA-MB-231 cells) | mice progressed to IDC at experimental endpoint ([1]; glands scored at day 50, 8 mice per group, control 6/8) | number of invasive regions throughout the mammary gland ([1]; vs DMSO control) | DSG3 protein in whole cell lysates (DSG3; N1ME stefin A low cells) | cleaved extracellular domain of DSG3 (ecto-DSG3) in conditioned media (DSG3; N1ME wild type and stefin A low cells) | E-cadherin expression in whole cell lysates or ecto-protein (E-cadherin) | invasion of MDA-MB-231 cells cultured alone (MDA-MB-231 cells; MDA-MB-231 alone, without myoepithelial cells) |
| --- | --- | --- | --- | --- | --- | --- | --- | --- | --- |
|  |  | CCCNC(=O)[C@H]1O[C@@H]1C(=O)N[C@H](C(=O)N1CCC[C@H]1C(=O)O)[C@@H](C)CC [CA-074] | rescued the phenotype caused by stefin A loss | 2/8 | decreased the number of invasive regions | rescued in whole cell lysates; also recorded: an increase in protein was noted for DSG3 | decreased the cleaved extracellular domain of DSG3 | did not affect E-cadherin expression |  |
|  |  | JPM-OEt | reverted the invasive protrusions in the co-cultures, however not to the same extent as CA-074, and was not statistically significant |  |  |  |  |  |  |
| can be inhibited | can be inhibited | recombinant stefin A: recombinant stefin A (R&D Systems, 1407-PI-050), an 11 kDa cysteine protease inhibitor (protein, UniProt P01040 1-98, looked up) Cystatin-A: MIPGGLSEAKPATPEIQEIVDKVKPQLEEKTNETYGKLEAVQYKTQVVAGTNYYIKVRAGDNKYMHLKVFKSLPGQNEDLVLTGYQVDKNKDDELTGF |  |  |  |  |  |  | did not inhibit invasion |

Reference: patent US11828759B2, “Method of diagnosis” (Peter MacCallum Cancer Institute, priority 2016, dated 2023)
